Consider 6 molecules from ChEMBL document CHEMBL5465560, “Selectivity Literature for EUbOPEN Chemogenomic Library” (2024).

Experiment [1] deals with T1, Histone-lysine N-methyltransferase EHMT1 (Homo sapiens) (UniProt Q9H9B1).
T1 sequence (whole entry): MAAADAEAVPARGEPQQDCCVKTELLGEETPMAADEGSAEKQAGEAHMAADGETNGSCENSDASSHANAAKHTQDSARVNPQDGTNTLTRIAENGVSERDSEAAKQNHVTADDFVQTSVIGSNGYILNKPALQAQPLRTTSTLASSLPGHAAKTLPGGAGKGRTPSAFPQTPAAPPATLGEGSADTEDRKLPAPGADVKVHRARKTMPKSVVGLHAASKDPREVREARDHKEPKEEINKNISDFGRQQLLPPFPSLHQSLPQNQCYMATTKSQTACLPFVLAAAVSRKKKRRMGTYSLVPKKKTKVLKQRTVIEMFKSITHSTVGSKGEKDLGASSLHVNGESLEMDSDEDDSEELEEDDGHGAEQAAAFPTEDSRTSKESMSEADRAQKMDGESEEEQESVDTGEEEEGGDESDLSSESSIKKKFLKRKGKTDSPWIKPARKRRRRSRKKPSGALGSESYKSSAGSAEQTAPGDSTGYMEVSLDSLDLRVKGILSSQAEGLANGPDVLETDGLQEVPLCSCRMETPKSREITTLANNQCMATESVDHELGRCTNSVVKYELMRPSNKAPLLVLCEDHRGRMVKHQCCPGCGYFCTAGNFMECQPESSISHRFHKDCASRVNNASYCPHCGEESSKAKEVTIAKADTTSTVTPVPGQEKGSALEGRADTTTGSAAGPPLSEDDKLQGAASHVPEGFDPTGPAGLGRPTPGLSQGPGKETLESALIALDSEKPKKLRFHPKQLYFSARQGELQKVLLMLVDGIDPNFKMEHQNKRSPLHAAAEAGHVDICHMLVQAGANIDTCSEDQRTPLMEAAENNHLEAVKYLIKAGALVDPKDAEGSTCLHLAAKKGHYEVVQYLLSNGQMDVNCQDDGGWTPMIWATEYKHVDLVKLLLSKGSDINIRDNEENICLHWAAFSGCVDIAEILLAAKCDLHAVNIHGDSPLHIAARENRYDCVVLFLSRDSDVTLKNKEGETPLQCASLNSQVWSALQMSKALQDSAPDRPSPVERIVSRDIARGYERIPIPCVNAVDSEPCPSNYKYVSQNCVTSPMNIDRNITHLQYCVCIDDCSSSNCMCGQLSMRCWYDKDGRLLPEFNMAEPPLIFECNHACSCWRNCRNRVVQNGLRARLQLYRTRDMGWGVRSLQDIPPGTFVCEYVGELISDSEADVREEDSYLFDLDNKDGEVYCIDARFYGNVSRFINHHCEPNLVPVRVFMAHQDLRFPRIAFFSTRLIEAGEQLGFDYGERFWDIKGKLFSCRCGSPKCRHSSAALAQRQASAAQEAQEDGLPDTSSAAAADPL
As to conditions: at 10 µM.

For experiment [2], the target named is T2, Interleukin-1 receptor-associated kinase 3 (Homo sapiens) (UniProt Q9Y616).
T2 sequence (whole entry): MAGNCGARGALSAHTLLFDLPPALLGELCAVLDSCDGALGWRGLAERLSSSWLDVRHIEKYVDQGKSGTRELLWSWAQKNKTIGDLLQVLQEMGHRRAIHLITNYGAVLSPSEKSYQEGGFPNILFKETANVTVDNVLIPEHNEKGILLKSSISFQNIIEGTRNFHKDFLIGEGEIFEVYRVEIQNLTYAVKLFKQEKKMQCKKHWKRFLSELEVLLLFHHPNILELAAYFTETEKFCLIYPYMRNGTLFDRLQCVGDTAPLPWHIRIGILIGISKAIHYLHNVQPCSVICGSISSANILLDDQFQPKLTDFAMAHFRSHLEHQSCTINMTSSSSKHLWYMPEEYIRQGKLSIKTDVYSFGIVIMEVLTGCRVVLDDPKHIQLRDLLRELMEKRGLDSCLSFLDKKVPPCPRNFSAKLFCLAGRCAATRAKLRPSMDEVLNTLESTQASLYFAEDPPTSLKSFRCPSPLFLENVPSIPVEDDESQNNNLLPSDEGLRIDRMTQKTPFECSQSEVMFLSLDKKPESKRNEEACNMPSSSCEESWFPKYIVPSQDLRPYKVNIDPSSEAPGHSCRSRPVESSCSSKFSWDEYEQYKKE
Nature of the experiment: Selectivity interaction (KinomeScan (DiscoverX)) EUB0000229b IRAK3. As to conditions: at 10 µM.

Experiment [3] has as its target Tyrosine-protein kinase Srms (Homo sapiens) (UniProt Q9H3Y6). In words: Selectivity interaction (Kinase panel (Eurofins)) EUB0001564a SRMS. As to conditions: at 1 µM.
Experiment [4] deals with Tyrosine-protein kinase ABL1 (Homo sapiens), P00519 [Y253F]. As to conditions: at 10 µM.
Experiment [5] deals with Mast/stem cell growth factor receptor Kit (Homo sapiens), P10721 [V559D,V654A]. Nature of the experiment: (§1) Selectivity interaction (KinomeScan (DiscoverX)) EUB0000618a KIT. Particulars: at 10 µM.
Chain of Mast/stem cell growth factor receptor Kit (Homo sapiens), P10721 [V559D,V654A] (P10721 whole entry V559D/V654A): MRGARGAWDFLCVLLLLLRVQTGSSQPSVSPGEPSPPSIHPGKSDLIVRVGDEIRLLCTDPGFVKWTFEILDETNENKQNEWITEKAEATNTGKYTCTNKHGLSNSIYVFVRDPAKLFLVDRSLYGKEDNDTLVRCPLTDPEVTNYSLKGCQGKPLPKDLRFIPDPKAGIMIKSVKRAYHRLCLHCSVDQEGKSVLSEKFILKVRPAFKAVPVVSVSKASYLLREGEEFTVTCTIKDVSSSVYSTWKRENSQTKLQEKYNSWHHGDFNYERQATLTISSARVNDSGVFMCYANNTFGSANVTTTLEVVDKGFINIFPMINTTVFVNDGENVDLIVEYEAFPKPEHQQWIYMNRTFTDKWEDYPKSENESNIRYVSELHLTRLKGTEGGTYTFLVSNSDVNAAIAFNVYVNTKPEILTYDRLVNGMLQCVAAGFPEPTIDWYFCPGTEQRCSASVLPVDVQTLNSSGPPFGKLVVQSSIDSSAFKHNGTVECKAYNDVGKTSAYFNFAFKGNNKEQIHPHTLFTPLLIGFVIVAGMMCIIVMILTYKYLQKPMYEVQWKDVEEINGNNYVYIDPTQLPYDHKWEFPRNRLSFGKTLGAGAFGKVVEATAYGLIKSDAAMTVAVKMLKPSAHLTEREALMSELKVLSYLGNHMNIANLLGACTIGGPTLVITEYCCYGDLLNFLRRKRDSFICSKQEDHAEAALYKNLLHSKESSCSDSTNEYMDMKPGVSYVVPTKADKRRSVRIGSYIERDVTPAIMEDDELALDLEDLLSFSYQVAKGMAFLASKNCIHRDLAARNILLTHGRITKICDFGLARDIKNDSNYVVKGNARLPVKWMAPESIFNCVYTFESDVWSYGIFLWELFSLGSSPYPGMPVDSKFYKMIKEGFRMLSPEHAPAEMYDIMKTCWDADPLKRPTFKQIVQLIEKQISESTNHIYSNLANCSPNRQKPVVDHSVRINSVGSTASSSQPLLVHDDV
The test system of experiment [6] is Mast/stem cell growth factor receptor Kit (Homo sapiens), P10721 [D816V]. The description is as §1. As to conditions: at 10 µM.
Chain of Mast/stem cell growth factor receptor Kit (Homo sapiens), P10721 [D816V] (P10721 whole entry D816V): as the sequence (P10721 whole entry V559D/V654A) above, with D559V, A654V, D816V counted along it
In experiment [7] the target is Mast/stem cell growth factor receptor Kit (Homo sapiens, UniProt P10721). The description is as §1. As to conditions: at 10 µM.
Chain of Mast/stem cell growth factor receptor Kit (P10721 whole entry): as the sequence (P10721 whole entry V559D/V654A) above, with D559V, A654V counted along it
Experiment [8] deals with Mast/stem cell growth factor receptor Kit (Homo sapiens), P10721 [A829P]. The description is as §1. As to conditions: at 10 µM.
Chain of Mast/stem cell growth factor receptor Kit (Homo sapiens), P10721 [A829P] (P10721 whole entry A829P): as the sequence (P10721 whole entry V559D/V654A) above, with D559V, A654V, A829P counted along it
Experiment [9] deals with Mast/stem cell growth factor receptor Kit (Homo sapiens), P10721 [L576P]. The description is as §1. Particulars: at 10 µM.
Chain of Mast/stem cell growth factor receptor Kit (Homo sapiens), P10721 [L576P] (P10721 whole entry L576P): as the sequence (P10721 whole entry V559D/V654A) above, with D559V, L576P, A654V counted along it
The target in experiment [10] is T3, Protein kinase C zeta type (Homo sapiens) (UniProt Q05513).
T3 sequence (whole entry): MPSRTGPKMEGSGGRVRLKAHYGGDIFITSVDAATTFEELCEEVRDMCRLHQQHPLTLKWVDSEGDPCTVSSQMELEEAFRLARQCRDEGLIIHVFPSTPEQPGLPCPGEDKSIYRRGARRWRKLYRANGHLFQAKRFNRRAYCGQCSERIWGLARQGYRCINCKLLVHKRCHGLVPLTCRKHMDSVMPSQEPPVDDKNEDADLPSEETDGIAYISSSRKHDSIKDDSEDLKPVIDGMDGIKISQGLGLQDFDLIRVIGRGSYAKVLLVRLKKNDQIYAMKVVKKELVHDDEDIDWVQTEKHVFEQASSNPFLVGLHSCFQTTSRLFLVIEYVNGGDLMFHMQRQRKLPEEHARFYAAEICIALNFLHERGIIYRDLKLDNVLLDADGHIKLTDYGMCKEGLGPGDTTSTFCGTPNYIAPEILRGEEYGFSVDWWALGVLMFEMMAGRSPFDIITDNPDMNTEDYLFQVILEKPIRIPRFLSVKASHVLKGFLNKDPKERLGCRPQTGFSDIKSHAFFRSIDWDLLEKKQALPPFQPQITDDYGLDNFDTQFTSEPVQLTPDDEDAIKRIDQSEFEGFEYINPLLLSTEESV
In words: Selectivity interaction (Upstate Kinase Profiler service (Millipore)) EUB0000056c PRKCZ. As to conditions: at 1 µM.

Structures are written as SMILES.

Chain of Tyrosine-protein kinase Srms (Homo sapiens) (Q9H3Y6 whole entry): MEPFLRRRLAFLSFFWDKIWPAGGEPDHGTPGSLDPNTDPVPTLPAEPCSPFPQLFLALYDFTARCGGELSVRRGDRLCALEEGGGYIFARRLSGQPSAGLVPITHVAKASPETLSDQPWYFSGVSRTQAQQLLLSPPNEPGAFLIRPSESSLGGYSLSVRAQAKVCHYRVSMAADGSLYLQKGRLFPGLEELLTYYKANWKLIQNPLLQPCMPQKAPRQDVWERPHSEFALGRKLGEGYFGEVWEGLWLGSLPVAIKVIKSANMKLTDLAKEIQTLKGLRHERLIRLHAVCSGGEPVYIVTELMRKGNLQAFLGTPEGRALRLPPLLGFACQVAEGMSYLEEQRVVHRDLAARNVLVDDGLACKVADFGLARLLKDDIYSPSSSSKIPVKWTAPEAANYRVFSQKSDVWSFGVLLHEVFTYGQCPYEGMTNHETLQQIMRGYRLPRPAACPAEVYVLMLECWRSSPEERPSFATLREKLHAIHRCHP

In the case of `CNCCN1CCC(c2cc(CN(C)C(=O)c3cccc(Oc4ccccc4)c3)ccn2)CC1`, in [1], the % activity was greater than 90%. Consider `COc1cc(N(C)c2ccnc3ccc(C(F)(F)F)cc23)cc(OC)c1OC`, for which the % binding in experiment [2] is 0%. Consider `CC[C@@H](Nc1c(C#N)c(-c2ccc(-c3cccc(C)c3F)cc2)nc2cnccc12)C(=O)O` [BAY-091], for which, in experiment [3], the % of inhibition was determined as 26.3%. Turning to `CCN(CC)CCCCNc1ncc2cc(-c3cc(OC)cc(OC)c3)c(NC(=O)NC(C)(C)C)nc2n1`, the % of control in experiment [4] is 100%. `O[C@H]1CC[C@H](Nc2ncc3nc(Nc4c(F)cc(F)cc4F)n([C@H]4CCOC4)c3n2)CC1`: the % of control in [5] is 68%; in experiment [6], 84%; in [7], 96%; in experiment [8] it was 77%; in experiment [9] it was 95%. Take `Cc1ccc(-c2ccc3c(ccc4sc5c(c43)NC[C@@H](C)NC5=O)n2)cn1`: the % of inhibition in [10] is -8%.
